In patent US20230121313A1 (priority 2019, published 2023):

Legend:
[1] = system: subjects with MDD at imminent risk for suicide; experiment: MADRS total score, Study […]2001 (change, sustained response, response, remission); format: in vivo, human; settings: for MADRS total score change, Diff. of LS Means (minus Placebo): ANCOVA LOCF; for MADRS total score, change from baseline, mean / MADRS total score, change from baseline, median / MADRS total score, mean / MADRS total score, median: LOCF, ITT N = 35
Source text: Primary efficacy variable/Primary Time point: Change from baseline (Day 1, predose) to Day 1, 4-hours postdose in MADRS total score. The MADRS consists of 10 items that cover all of the core depressive symptoms, with each item scoring from 0 (item is not present or is normal) to 6 (severe or continuous presence of the symptom). A higher score represents a more severe condition.
• a. Changes from baseline to Day 2 and Day 25 for the MADRS total score • b. Changes from baseline to Day 1 4-hours postdose, Day 2 and Day 25 for the MADRS Suicide Item • c. Changes from baseline to Day 1 4-hours postdose, Day 2, and Day 25 for the clinical global judgment of suicide risk from the Suicide Ideation and Behavior Assessment Tool (SIBAT) • d. Sustained response (Onset of Clinical Response) defined as at least 50% reduction from baseline in MADRS total score with onset on Day 1 that is maintained through the end of the double-blind phase (Day 25) • e. Changes from baseline to Day 1 4-hours postdose, Day 2, and Day 25 for the Beck Scale for Suicidal Ideation (BSS) • f. Changes from baseline to Day 1 4-hours postdose and Day 25 for the Beck Hopelessness Scale
The primary efficacy endpoint is the change in MADRS total score from baseline to Day 1: 4-hours postdose. MADRS total scores range from 0 to 60. […] As this is a phase 2a proof-of-concept study, statistical significance is based on a two-sided alpha level of 0.20. All p-values presented in this document are two-sided.
Sustained response is defined as at least 50% reduction from baseline in MADRS total score with onset on Day 1: 4 hours postdose that is maintained through the end of the double-blind phase (Day 25). Four subjects in the esketamine 84 mg group and 2 subjects in the placebo group had sustained response throughout the double-blind phase.

[2] = Pharmacokinetics of intranasal esketamine 28, 56, 84 mg in healthy subjects (Example 9); settings: for AUC(0-inf) / AUC(0-t) / Cmax / half-life / Tmax: both, human, plasma; for Tmax: healthy subjects
Description: This was an open-label, single-center study. The subjects were healthy Caucasian men and women, 20 to 55 years of age, inclusive. […] The solution consisted of:
Pharmacokinetic blood samples for measurement of esketamine and noresketamine concentrations in plasma were collected from predose until up to 24 hours after each intranasal esketamine regimen on Day 1 of each period.
Blood samples (4 mL each) for determination of esketamine and noresketamine plasma concentrations were collected into the appropriate collection tube (e.g., Vacutainer®) at timepoints 0.00, 0.12, 0.20, 0.37, 0.53, 0.67, 0.83, 1.00, 1.25, 1.50, 2.00, 3.00, 4.00, 6.00, 9.00, 12.00, 18.00, and 24.00 h. The total amount of blood to be drawn for clinical laboratory tests and PK evaluations is approximately 327 mL.
Plasma samples were analyzed for esketamine and noresketamine concentrations using the validated, specific and sensitive liquid chromatography coupled to tandem mass spectrometry (LC-MS/MS) achiral method of Example 8.
Serial PK blood samples (4 mL each) were collected for a 24-hour period from each subject (Periods 1, 2, and 3).
The following key parameters of esketamine and noresketamine in plasma were calculated using noncompartmental methods and actual sampling times: Cmax, tmax, AUClast, AUC∞, t1/2,λ, and λz.

CN[C@]1(c2ccccc2Cl)CCCCC1=O [esketamine, (S)-2-(2-chlorophenyl)-2-(methylamino)cyclohexanone]
MADRS total score change, Diff. of LS Means (minus Placebo) ([1]; 84 mg, Day 1 (DB): 4 H): −5.3
MADRS total score, change from baseline, mean ([1]; 84 mg, Day 1 (DB): 4 H): −13.4
MADRS total score, change from baseline, median ([1]; 84 mg, Day 1 (DB): 4 H): −14.0
MADRS total score, mean ([1]; 84 mg, Day 1 (DB): 4 H): 25.1
MADRS total score, median ([1]; 84 mg, Day 1 (DB): 4 H): 23.0
MADRS total score change, Diff. of LS Means (minus Placebo) ([1]; 84 mg, Day 2 (DB)): −7.2
MADRS total score, change from baseline, mean ([1]; 84 mg, Day 2 (DB)): −19.3
MADRS total score, change from baseline, median ([1]; 84 mg, Day 2 (DB)): −19.0
MADRS total score, mean ([1]; 84 mg, Day 2 (DB)): 19.2
MADRS total score, median ([1]; 84 mg, Day 2 (DB)): 18.0
MADRS total score change, Diff. of LS Means (minus Placebo) ([1]; 84 mg, End Point (DB)): −4.5
MADRS total score, change from baseline, mean ([1]; 84 mg, End Point (DB)): −26.4
MADRS total score, change from baseline, median ([1]; 84 mg, End Point (DB)): −25.0
MADRS total score, mean ([1]; 84 mg, End Point (DB)): 12.1
MADRS total score, median ([1]; 84 mg, End Point (DB)): 8.0
Day 25 sustained response based on MADRS total score: No, subjects (%) ([1]; 84 mg, ITT): 88.2%
Day 25 sustained response based on MADRS total score: Yes, subjects (%) ([1]; 84 mg, at least 50 percent reduction with onset on Day 1 maintained through Day 25, ITT): 11.8%
Subjects with sustained response (≥50% MADRS reduction from Day 1 4 h through Day 25) ([1]; […]2001, 84 mg): Four
MADRS total score: mean change from baseline (SD) ([1]; […]2001, 84 mg, Day 1: 4-hours postdose): −13.4 (9.03)
MADRS total score: mean change from baseline (SD) ([1]; […]2001, 84 mg, Day 2 (DB)): −19.3 (12.02)
MADRS total score: mean change from baseline (SD) ([1]; […]2001, 84 mg, End Point (DB)): −26.4 (14.52)
Subjects who discontinued due to lack of efficacy ([1]; […]2001, 84 mg, double-blind phase): 1 subject
MADRS total score: least-square mean difference (SE) from placebo, ANCOVA ([1]; […]2001, esketamine 84 mg, Day 1, 4-hours postdose): −5.3 (2.10)
AUC(0-inf) ([2]; inhaled or intranasal, 28 mg): 136 ng·h/mL
AUC(0-t) ([2]; inhaled or intranasal, 28 mg): 128 ng·h/mL
Cmax ([2]; inhaled or intranasal, 28 mg): 49.7 ng/mL
half-life ([2]; inhaled or intranasal, 28 mg): 7.25 h
Tmax ([2]; inhaled or intranasal, 28 mg, tmax, esketamine in plasma, single intranasal 28 mg (Treatment A), median): 0.67 h
AUC(0-inf) ([2]; inhaled or intranasal, 56 mg): 222 ng·h/mL
AUC(0-t) ([2]; inhaled or intranasal, 56 mg): 216 ng·h/mL
Cmax ([2]; inhaled or intranasal, 56 mg): 74.1 ng/mL
half-life ([2]; inhaled or intranasal, 56 mg): 7.25 h
Tmax ([2]; inhaled or intranasal, 56 mg, tmax, esketamine in plasma, single intranasal 56 mg (Treatment B), median): 0.67 h
AUC(0-inf) ([2]; inhaled or intranasal, 84 mg): 329 ng·h/mL
AUC(0-t) ([2]; inhaled or intranasal, 84 mg): 310 ng·h/mL
Cmax ([2]; inhaled or intranasal, 84 mg): 103 ng/mL
half-life ([2]; inhaled or intranasal, 84 mg): 7.11 h
Tmax ([2]; inhaled or intranasal, 84 mg, Median tmax of esketamine, range across regimens, intranasal 28, 56, 84 mg): 0.67 to 0.83 h
Tmax ([2]; inhaled or intranasal, 84 mg, tmax, esketamine in plasma, single intranasal 84 mg (Treatment C), median): 0.83 h
half-life ([2]; other: intranasal, 84 mg): 7.11 to 7.25 h
AUC (AUClast and AUC∞) variability ([2]; esketamine in plasma): 25.0% to 30.4
Cmax variability (percent coefficient of variation) across the 3 treatment groups ([2]; esketamine in plasma): 35.7% to 36.7
